Tested on: Hypo-InflammaSkin models
Test: Ex vivo human skin model of psoriasis (Hypo-InflammaSkin), cytokine release in culture medium
Format: cell-based
Conditions: for secretion of IL-22: Day 7 (FIG. 13R); for secretion of MIP-3α: Day 7 (FIG. 13S)
From the text: Background: InflammaSkin® model is a validated psoriasis-like model developed to reproduce key features of pro-Th17/Th1 inflammation associated with psoriasis. It relies on the in situ activation of resident T-cell of normal skin biopsies and their further polarization into Th17/Th1 phenotype with the supplementation of culture medium with a cocktail of pro-inflammatory cytokines.
Model production and culture: 2 HypoSkin models of 15 mm in diameter (1.76 cm^2) were produced from 1 donor and cultured with 2 mL standard HypoSkin® medium. 20 Hypo-InflammaSkin models were produced from 1 donor by inducing in sit activation and Th17/Th1 polarization of skin resident T cells with proprietary cocktail and cultured with 2 mL Hypo-InflammaSkin® culture medium. The total treatable surface area of the models was 113 mm^2, and dosing of BisEDT took this into account based on dosing of the topical treatment. Models were maintained in standard cell culture conditions for the whole culture duration at 37° C., 5% CO2 and water saturation, with appropriate culture medium renewed every day.
Treatment Groups: Model Treatment: (1) HypoSkin® untreated control; (2) Hypo-InflammaSkin® untreated control; (3) topical betamethasone (positive control); (4) topical BisEDT—2.5 mg/mL (treatment applied every day from day 0 to 6; (5) topical BisEDT—1.25 mg/mL (treatment applied every day from day 3 to 6). N=3 per treatment group, except N=5 for Hypo-InflammaSkin® and N=1 for HypoSkin®.
Topical Treatment—Betamethasone (control): 25 μL of betamethasone was topically applied onto the surface of each skin model. Topical application was performed from Day 0 to Day 6 after removal of the previous treatment residues using a cotton swab.
Topical Treatment—BisEDT: 36 μL of the test compound was topically applied onto the surface of each skin model, massaging across the entire surface area for 1 minute, using a parafilm wrapped cotton swab; the compound was left on the skin. Topical application was performed from Day 0 to Day 6 (Treatment Group 4) or Day 3 to Day 6 (Treatment Group 5). A total of 9 models were topically treated.
Culture Media—culture media was collected on Day 3 prior to treatment application and on Day 7 and frozen at −80° C. A total of 42 culture media samples were collected.
IL-22 release: IL-22 release was measured in culture media using ELISA Human IL-22 Quantikine Kit (Bio-techne, ref D2200). Only samples from control conditions 1 to 3 were analyzed to assess donor's response to T cell activation. Each sample was analyzed in duplicate.
MSD Immunoassay—cytokine release (IL-2, IL-13, IL-15, IL-17A, IL-22, TNF-α, INF-γ, MIP-1β, and […]) in the culture medium was measured using the V-PLEX Plus Human Cytokine Kit (KI5089G, MesoScale Discovery) (FIGS. 13D-13S).

[1] = Day 3, compared to HypoInflammaSkin
[2] = Day 7, compared to untreated HypoInflammaSkin controls

C1C[S][Bi]([S]CC[S][Bi]2[S]CC[S]2)[S]1 [BisEDT, 1,2-(Bis(1,3-dithia-2-bismolane)thio)ethane]
MIP-1β levels vs betamethasone: lower than the steroid betamethasone
reducing/preventing inflammation induced in the HypoInflammaSkin models, vs betamethasone: more effective than betamethasone
secretion of IL-13 [1]: reduced secretion
secretion of IL-15 [1]: reduced secretion
secretion of IL-17A [1]: reduced secretion
secretion of INF-γ [1]: reduced secretion
secretion of MIP-110 [1]: reduced secretion
secretion of TNF-α [1]: reduced secretion
IL-17A secretion (Day 3 and Day 7 (FIGS. 13D, 13E), compared to untreated HypoInflammaSkin): notable reduction
TNF-α (Day 3 and Day 7 (FIGS. 13F, 13G), compared to untreated HypoInflammaSkin control): reduction
IFNγ secretion (Day 3 and Day 7 (FIGS. 13H, 13I), compared to untreated HypoInflammaSkin control): reduced
secretion of MIP-1β (Day 3 and Day 7 (FIGS. 13L, 13M), compared to untreated HypoInflammaSkin): statistically significant decrease
MIP-1β level (Day 7): two out of three replicates below LOQ
secretion of IL-22 (compared to untreated HypoInflammaSkin control, listed as Pravibismane): reduced secretion
secretion of IL-22 (compared to untreated HypoInflammaSkin control, listed as pravibismane): continued to decrease
secretion of MIP-3α (compared to untreated HypoInflammaSkin, listed as Pravibismane): statistically significant decrease
secretion of MIP-3α (compared to untreated HypoInflammaSkin, listed as pravibismane): continued to decrease
secretion of IFN-γ [2]: continued to decrease
secretion of IL-13 [2]: continued to decrease
secretion of IL-15 [2]: continued to decrease
secretion of IL-17A [2]: continued to decrease
secretion of MIP-1β [2]: continued to decrease
secretion of TNF-α [2]: continued to decrease
IL-15 secretion (pravibismane (day 3), compared to untreated HypoInflammaSkin): statistically significant reduction
IL-15 secretion vs HypoSkin untreated (pravibismane treatment (day 3)): even lower than healthy uninflamed skin
IL-17A levels vs positive control (betamethasone) (topical, started at day 0 or day 3): even lower than positive control
IL-13 secretion (treatment from day 0 (FIGS. 13N, 13O), compared to HypoInflammaSkin control): reduced
IFN-γ levels vs positive control (betamethasone) (treatment starting at Day 0): even lower than positive control
TNF-α levels vs positive control (betamethasone) (treatment starting at Day 0): even lower than positive control
